Where no end group is shown, it is not given here.
System: corneal epithelium
Test: Action for extending corneal epithelium (in vitro), corneal blocks in tissue culture
Format: cell-based, male Japanese White rabbit
Details: for Extension ratio (%): 24 hours culture, control = 100%, mean of six sections; for activity in corneal epithelium extension test: in combination with substance P; for influence on the extension of corneal epithelium: peptide alone
Procedure: (1) Action For Extending Corneal Epithelium (In Vitro)
Using the cornea of a male Japanese White rabbit and according to the method of Nishida et al. (J. Cell Biol., 97, 1653-1657 (1983)), the length of corneal epithelium extension of the corneal section in a tissue culture system was used as a marker to examine the influence on corneal epithelium extension.
Corneal blocks cut off from rabbit corneal section (6 blocks per group) were cultured in culture media (TC-199) containing a test compound under conditions of 5% CO2 at 37° C. for 24 hours. After culturing, the corneal blocks were fixed in a mix solution of ethanol-glacial acetic acid (volume ratio: 95:5) and then embedded in paraffin to prepare sections. After paraffin was removed from the sections, the resulting sections were stained with hematoxylin-eosin to examine the extended length of the corneal epithelial cell layer with a microscope. As a control, the blocks cultured in the same manner in the culture media without any test compound were used.
Herein, the extension ratio in the table is the mean of six sections per group, as calculated when the elongated length of the control group was defined as the basal line (100%).

[1] = test peptide 1 nM + substance P (20 μM)

Row | Substance | Extension ratio (%) [1] [%] | Extension ratio (%) (test peptide alone, 1 nM) | other results
1 | Ser-Ser-Ser-Arg-Arg (SSSRR; Human) | 136 | 98 | 
2 | Gly-Ser-Ser-Ser-Arg (GSSSR; Human) | 135 | 101 | 
3 | Ser-Ser-Ser-Arg (SSSR; Human) | 138 | 101 | Extension ratio (%) (test peptide 1 nM + FGLM (20 μM)): 145%
4 | GSSSRRAP (Human) [Gly-Ser-Ser-Ser-Arg-Arg-Ala-Pro] | 140 | 97 | activity in corneal epithelium extension test: the activity still remained
5 | GSSSRAAAP (Human) [Gly-Ser-Ser-Ser-Arg-Ala-Ala-Ala-Pro] | 139 | 100 | 
6 | Phe-Gly-Leu-Met-NH2 (FGLM-NH2) [tetrapeptide on the C terminal of substance P, reference compound] |  |  | influence on the extension of corneal epithelium: not observed to have any influence; Extension ratio (%) (test peptide alone, 20 μM): 99%
7 | Substance P: polypeptide consisting of 11 amino acids (RPKPQQFFGLM-NH2; ends and bridges not checked; UniProt P20366 58-68, looked up) [reference compound] |  |  | influence on the extension of corneal epithelium: not observed to have any influence; Extension ratio (%) (test peptide alone, 20 μM): 94%
8 | ASSSRRAP (Human) [Ala-Ser-Ser-Ser-Arg-Arg-Ala-Pro] | 134 |  | 
9 | GYGSSSRRAPQT (Human) [Gly-Tyr-Gly-Ser-Ser-Ser-Arg-Arg-Ala-Pro-Gln-Thr, the peptide composing the domain C of IGF-I] | 134 | 104 | activity in corneal epithelium extension test: had the activity
10 | GSSSRAAP (Human) [Gly-Ser-Ser-Ser-Arg-Ala-Ala-Pro] | 150 |  | 
11 | GSSSRR | 142 | 94 | 

Reference: patent US7795222B2, “Methods for treating a corneal disorder and promoting skin wound healing” (Santen Pharmaceutical Co., Ltd., priority 2001, dated 2010)
